Experimental data as given in patent US6358885B1, “Substituted phenylheterocyclic herbicides” (Mississippi State University, priority 1992, dated 2002).

Experiments:
chickweed = experiment: Test B preemergence/postemergence greenhouse plant response rating 0 to 10; format: in vivo, Stellaria media; details: for Plant response rating, Chickweed: 0 to 10 scale
Method in brief: (§1)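 Test chemicals, dissolved in a non-phytotoxic solvent, were applied to soil at planting and, at the same time, over foliage of seedlings at the one to four leaf stage.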

barley = experiment: as above; format: in vivo, Hordeum vulgare; details: for Plant response rating, Barley: 0 to 10 scale
Method in brief: as §1

crabgrass = experiment: Test C preemergence/postemergence greenhouse plant response rating 0 to 100; format: in vivo, Digitaria sanguinalis; details: POSTEMERGENCE; for Plant response rating, Crabgrass: 0 to 100 scale
Method in brief: (§2)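 Compounds in non-phytotoxic solvent applied preemergence to sandy loam one day after planting, postemergence at the 1–4 leaf stage, or to ~2.5 cm floodwater over silt loam.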

velvetleaf = experiment: Test B preemergence/postemergence greenhouse plant response rating 0 to 10; format: in vivo, Abutilon theophrasti; details: 0 to 10 scale
Method in brief: as §1

bedstraw = experiment: Test C preemergence/postemergence greenhouse plant response rating 0 to 100; format: in vivo, Galium aparine; details: POSTEMERGENCE; for Plant response rating, Bedstraw: 0 to 100 scale
Method in brief: as §2

wild oat = experiment: as above; format: in vivo, Avena fatua; details: POSTEMERGENCE; for Plant response rating, Wild oat: 0 to 100 scale
Method in brief: as §2

purple nutsedge = experiment: Test B preemergence/postemergence greenhouse plant response rating 0 to 10; format: in vivo, Cyperus rotundus; details: 0 to 10 scale
Method in brief: as §1

sugar beet = experiment: as above; format: in vivo, Beta vulgaris; details: 0 to 10 scale
Method in brief: as §1

rape = experiment: Test C preemergence/postemergence greenhouse plant response rating 0 to 100; format: in vivo, Brassica napus; details: POSTEMERGENCE; for Plant response rating, Rape: 0 to 100 scale
Method in brief: as §2

wheat = experiment: as above; format: in vivo, Triticum aestivum; details: POSTEMERGENCE; for Plant response rating, Wheat: 0 to 100 scale
Method in brief: as §2

ryegrass = experiment: as above; format: in vivo, Lolium multiflorum; details: POSTEMERGENCE; for Plant response rating Ryegrass: 0 to 100 scale
Method in brief: as §2

corn [1] = experiment: Test B preemergence/postemergence greenhouse plant response rating 0 to 10; format: in vivo, Zea mays; details: for Plant response rating, Corn: 0 to 10 scale
Method in brief: as §1

morningglory = experiment: Test C preemergence/postemergence greenhouse plant response rating 0 to 100; format: in vivo, Ipomoea hederacea; details: POSTEMERGENCE; for Plant response rating, Morningglory: 0 to 100 scale
Method in brief: as §2

sorghum = experiment: Test B preemergence/postemergence greenhouse plant response rating 0 to 10; format: in vivo, Sorghum bicolor; details: 0 to 10 scale
Method in brief: as §1

barnyardgrass = experiment: as above; format: in vivo, Echinochloa crus-galli; details: for Plant response rating, Barnyardgrass: 0 to 10 scale
Method in brief: as §1

blackgrass = experiment: as above; format: in vivo, Alopecurus myosuroides; details: for Plant response rating, Blackgrass: 0 to 10 scale
Method in brief: as §1

rice = experiment: Test C flood test plant response rating 0 to 100; format: in vivo, Oryza sativa; details: for Plant response rating Rice Japonica: flood test species listed under POSTEMERGENCE, 0 to 100 scale
From the text: The compounds evaluated in this test were formulated in a non-phytoxic solvent and applied to the soil surface before plant seedlings emerged (preemergence application), to water that covered the soil surface (flood application), and to plants that were in the one-to-four leaf stage (postemergence application). A sandy loam soil was used for the preemergence and postemergence tests, while a silt loam soil was used in the flood test. Water depth was approximately 2.5 cm for the flood test and was maintained at this level for the duration of the test. Plant species in the preemergence and postemergence tests consisted of barley (Hordeum vulgare), bedstraw (Galium aparine), blackgrass (Alopecurus myosuroides), chickweed (Stellaria media), corn (Zea mays), cotton (Gossypium hirsutum), crabgrass (Digitaria sanguinalis), downy brome (Bromus tectorum), giant foxtail (Setaria faberii), lambsquarters (Chenopodium album), morningglory (Ipomoea hederacea), pigweed ([…]), rape (Brassica napus), ryegrass (Lolium multiflorum), sorghum (Sorghum bicolor), soybean (Glycine max), speedwell (Veronica persica), sugar beet (Beta vulgaris), velvetleaf (Abutilon theophrasti), wheat (Triticum aestivum), wild buckwheat (Polygonum convolvulus), and wild oat (Avena fatua). All plant species were planted one day before application of the compound for the preemergence portion-of this test. Plantings of these species were adjusted to produce plants of appropriate size for the post-emergence portion of the test. […] All plant species were grown using normal greenhouse practices. Visual evaluations of injury expressed on treated plants, when compared to untreated controls, were recorded approximately fourteen to twenty one days after application of the test compound. […] A dash (-) response means no test result.

corn [2] = experiment: Test C preemergence/postemergence greenhouse plant response rating 0 to 100; format: in vivo, Zea mays; details: POSTEMERGENCE; for Plant response rating, Corn: 0 to 100 scale
Method in brief: as §2

## CC(C)COc1cc(-c2nn3c(c2Cl)CCCC3)c(F)cc1Cl [Compound 30]
chickweed; POSTEMERGENCE, Rate 50 g/ha
  Plant response rating (0 to 10 scale), Chickweed: 5
chickweed; POSTEMERGENCE, Rate 200 g/ha
  Plant response rating, Chickweed: 8
chickweed; PREEMERGENCE, Rate 50 g/ha
  Plant response rating, Chickweed: 0
chickweed; Rate 200 g/ha, PREEMERGENCE
  Plant response rating, Chickweed: 3
barley; POSTEMERGENCE, Rate 50 g/ha
  Plant response rating (0 to 10 scale), Barley: 5
barley; POSTEMERGENCE, Rate 200 g/ha
  Plant response rating, Barley: 6
barley; PREEMERGENCE, Rate 50 g/ha
  Plant response rating, Barley: 0
barley; Rate 200 g/ha, PREEMERGENCE
  Plant response rating, Barley: 2
crabgrass; 62 g/ha
  Plant response rating, Crabgrass: 0
crabgrass; 250 g/ha
  Plant response rating, Crabgrass: 20
crabgrass; Rate 4 g/ha
  Plant response rating (0 to 100), Crabgrass: 0
crabgrass; Rate 16 g/ha
  Plant response rating (0 to 100), Crabgrass: 0
velvetleaf; POSTEMERGENCE, Rate 50 g/ha
  Plant response rating, Velvetleaf: 7
velvetleaf; PREEMERGENCE, Rate 50 g/ha
  Plant response rating, Velvetleaf: 5
velvetleaf; Rate 200 g/ha, POSTEMERGENCE
  Plant response rating, Velvetleaf: 10
velvetleaf; Rate 200 g/ha, PREEMERGENCE
  Plant response rating, Velvetleaf: 10
bedstraw; 62 g/ha
  Plant response rating, Bedstraw: 100
bedstraw; 250 g/ha
  Plant response rating, Bedstraw: 100
bedstraw; Rate 4 g/ha
  Plant response rating (0 to 100), Bedstraw: 50
bedstraw; Rate 16 g/ha
  Plant response rating (0 to 100), Bedstraw: 70
Wild oat; 62 g/ha
  Plant response rating, Wild oat: 60
Wild oat; 250 g/ha
  Plant response rating, Wild oat: 80
Wild oat; Rate 4 g/ha
  Plant response rating (0 to 100), Wild oat: 20
Wild oat; Rate 16 g/ha
  Plant response rating (0 to 100), Wild oat: 40
Purple nutsedge; POSTEMERGENCE, Rate 50 g/ha
  Plant response rating, Nutsedge: 2
Purple nutsedge; PREEMERGENCE, Rate 50 g/ha
  Plant response rating, Nutsedge: 0
Purple nutsedge; Rate 200 g/ha, POSTEMERGENCE
  Plant response rating, Nutsedge: 5
Purple nutsedge; Rate 200 g/ha, PREEMERGENCE
  Plant response rating, Nutsedge: 0
Sugar beet; POSTEMERGENCE, Rate 50 g/ha
  Plant response rating, Sugar beet: 10
Sugar beet; PREEMERGENCE, Rate 50 g/ha
  Plant response rating, Sugar beet: 5
Sugar beet; Rate 200 g/ha, POSTEMERGENCE
  Plant response rating, Sugar beet: 10
Sugar beet; Rate 200 g/ha, PREEMERGENCE
  Plant response rating, Sugar beet: 9
rape; 62 g/ha
  Plant response rating, Rape: 100
rape; 250 g/ha
  Plant response rating, Rape: 100
rape; Rate 4 g/ha
  Plant response rating (0 to 100), Rape: 50
rape; Rate 16 g/ha
  Plant response rating (0 to 100), Rape: 80
wheat; 62 g/ha
  Plant response rating, Wheat: 60
wheat; 250 g/ha
  Plant response rating, Wheat: 90
wheat; Rate 4 g/ha
  Plant response rating (0 to 100), Wheat: 20
wheat; Rate 16 g/ha
  Plant response rating (0 to 100), Wheat: 30
ryegrass; 62 g/ha
  Plant response rating Ryegrass: 60
ryegrass; 250 g/ha
  Plant response rating Ryegrass: 80
ryegrass; Rate 4 g/ha
  Plant response rating (0 to 100), Ryegrass: 20
ryegrass; Rate 16 g/ha
  Plant response rating (0 to 100), Ryegrass: 40
Corn [1]; POSTEMERGENCE, Rate 50 g/ha
  Plant response rating (0 to 10 scale), Corn: 4
Corn [1]; POSTEMERGENCE, Rate 200 g/ha
  Plant response rating, Corn: 4
Corn [1]; PREEMERGENCE, Rate 50 g/ha
  Plant response rating, Corn: 0
Corn [1]; Rate 200 g/ha, PREEMERGENCE
  Plant response rating, Corn: 1
morningglory; 62 g/ha
  Plant response rating, Morningglory: 80
morningglory; 250 g/ha
  Plant response rating, Morningglory: 90
morningglory; Rate 4 g/ha
  Plant response rating (0 to 100), Morningglory: 30
morningglory; Rate 16 g/ha
  Plant response rating (0 to 100), Morningglory: 50
sorghum; POSTEMERGENCE, Rate 50 g/ha
  Plant response rating, Sorghum: 4
sorghum; PREEMERGENCE, Rate 50 g/ha
  Plant response rating, Sorghum: 0
sorghum; Rate 200 g/ha, POSTEMERGENCE
  Plant response rating, Sorghum: 6
sorghum; Rate 200 g/ha, PREEMERGENCE
  Plant response rating, Sorghum: 0
barnyardgrass; POSTEMERGENCE, Rate 50 g/ha
  Plant response rating (0 to 10 scale), Barnyardgrass: 6
barnyardgrass; POSTEMERGENCE, Rate 200 g/ha
  Plant response rating, Barnyardgrass: 10
barnyardgrass; PREEMERGENCE, Rate 50 g/ha
  Plant response rating, Barnyardgrass: 2
barnyardgrass; Rate 200 g/ha, PREEMERGENCE
  Plant response rating, Barnyardgrass: 6
blackgrass; POSTEMERGENCE, Rate 50 g/ha
  Plant response rating (0 to 10 scale), Blackgrass: 5
blackgrass; POSTEMERGENCE, Rate 200 g/ha
  Plant response rating, Blackgrass: 5
blackgrass; PREEMERGENCE, Rate 50 g/ha
  Plant response rating, Blackgrass: 0
blackgrass; Rate 200 g/ha, PREEMERGENCE
  Plant response rating, Blackgrass: 0
rice; POSTEMERGENCE section, flood test, Rate 4 g/ha
  Plant response rating (0 to 100), Rice Japonica: 35
rice; Rate 16 g/ha, under POSTEMERGENCE head (flood test species)
  Plant response rating (0 to 100), Rice Japonica: 40
rice; 62 g/ha
  Plant response rating Rice Japonica: 50
rice; 250 g/ha
  Plant response rating Rice Japonica: 60
Corn [2]; 62 g/ha
  Plant response rating, Corn: 30
Corn [2]; 250 g/ha
  Plant response rating, Corn: 40
Corn [2]; Rate 4 g/ha
  Plant response rating (0 to 100), Corn: 20
Corn [2]; Rate 16 g/ha
  Plant response rating (0 to 100), Corn: 20
